Here are results for 5 compounds from patent US4122204A, “N-(4-tert-butylphenylthiosulfenyl)-N-alkyl aryl carbamate compounds” (priority 1976, dated 1978).

≈ marks a conversion by molar mass, not a printed value. Where two headings read alike, the source gives them in different places.

For series [1], the system named is two-spotted mite (Tetranychus urticae Koch). The series is described as follows: Mite Foliage Spray Test. The series is classed as in vivo. Conditions: foliar, 144 h, read-out: Mite LD50. On the procedure:
(§1) Suspensions of the test compounds were prepared by dissolving one gram of compound in 50 milliliters of acetone in which had been dissolved 0.1 gram (10 percent of the weight of compound) of an alkylphenoxy polyethoxyethanol surfactant, as an emulsifying or dispersing agent. The resulting solution was mixed into 150 milliliters of water to give roughly 200 milliliters of a suspension containing the compound in finely divided form. The thus-prepared stock suspension contained 0.5 percent by weight of test compound. The test concentration in parts per million by weight employed in the tests described hereinbelow were obtained by appropriate dilutions of the stock suspension with water. The test procedures were as follows:
Adults and numphal stages of the two-spotted mite (Tetranychus urticae Koch), reared on Tendergreen bean plants at 80±5 percent relative humidity, were the test organisms. Infested leaves from a stock culture were placed on the primary leaves of two bean plants six to eight inches in height, growing in a two-and-a-half inch clay pot. 150-200 Mites, a sufficient number for testing, transferred from the excised leaves to the fresh plants in a period of twenty four hours. Following the twenty four hour transfer period, the excised leaves were removed from the infested plants. The test compounds were formulated by diluting the stock suspension with water to give a suspension containing 500 parts of test compound per million parts of final formulation. The potted plants (one pot per compound) were placed on a revolving turntable and sprayed with 100-110 milliliters of test compound formulation by use of a DeVilbiss spray gun set at 40 psig. air pressure. This application, which lasted 25 seconds, was sufficient to wet the plants to run-off. As a control, 100-110 milliliters of a water solution containing acetone and emulsifier in the same concentrations as the test compound formulation, but containing no test compound, were also sprayed on infested plants. The sprayed plants were held at 80±5 percent relative humidity for six days, after which a mortality countr of motile forms was made. Microscopic examination for motile forms was made on the leaves of the test plants. Any individual which was capable of locomotion upon prodding was considered living.

The subject of series [2] is house flies (Musca domestica, L.). The experiment in a line: Fly Bait Test. The series is classed as in vivo. Conditions: 24 h, read-out: House Fly LD50. How it is done:
as §1
Four to six day old adult house flies (Musca domestica, L.), reared according to the specifications of the Chemical Specialities Manufacturing Association (Blue Book, McNair-Dorland Co., N.Y. 1954; pages 243-244, 261) under controlled conditions of 80°±5° F. and 50±5 percent relative humidity, were the test insects. The flies were immobilized by anesthetizing with carbon dioxide and twenty five immobilized individuals, males and females, were transferred to a cage consisting of a standard food strainer about five inches in diameter which was inverted over a wrapping-papercovered surface. The test compounds were formulated by diluting the stock suspension with a 10 percent (by weight) sugar solution to give a suspension containing 500 parts of test compound per million parts of final formulation, by weight. Ten milliliters of the test formulation were added to a souffle cup containing a one-inch square of an absorbent cotton pad. This bait cup was introduced and centered on the blotting paper under the food strainer prior to admitting the anesthetized flies. The caged flies were allowed to feed on the bait for twenty four hours, at a temperature of 80°±5° F. and the relative humidity of 50±5 percent.

For series [3], the system named is Mexican bean beetle (Epilachna varivestis, Muls.). The series is described as follows: Mexican Bean Beetle Leaf Spray Test. The series is classed as in vivo. The note with it: for LC50: Epilachna varivestis, 72 h, read-out: Mexican Bean Beetle LD50. On the procedure:
as §1
Fourth instar larvae of the Mexican bean beetle (Epilachna varivestis, Muls.), reared on Tendergreen bean plants at a temperature of 80°±5° F. and 50±5 percent relative humidity, were the test insects.
The test compounds were formulated by diluting the stock suspension with water to give a suspension containing 500 parts of test compound per million parts of final formulation. Potted Tendergreen bean plants of standard height and age were placed on a revolving turntable and sprayed with 100-110 milliliters of test compound formulation by use of a DeVilbiss spray gun set at 10 psig air pressure. This application, which lasted 25 seconds, was sufficient to wet plants to run-off. As a control, 100-110 milliliters of a water-acetone-emulsifier solution containing no test compound were also sprayed on infested plants. When dry, the paired leaves were separated and each was placed in a 9 centimeter Petri dish lined with moistened filter paper. Five randomly selected larvae were introduced into each dish, and the dishes were closed. The closed dishes were labeled and held at a temperature of 80°±5° F. for three days. Although the larvae could easily consume the leaf within 24 to 48 hours, no more food was added. Larvae which were unable to move the length of the body, even upon stimulation, were considered dead.

The next series can be described thus: in vivo. The note with it: rat, in vivo, po. How it is done: (§2) These compounds were also evaluated to determine their peroral toxicity to mammals by conventional methods. The animal selected for this experiment was the rat.
(§3) The toxicity is reported in […] required for a 50% kill (LD50).

Another series has as its system rat. The experiment in a line: in vivo. Conditions: for mammalian toxicity (in words): rat, in vivo. How it is done:
as §2, §3

The subject of series [4] is southern armyworm (Prodenia eridania, (Cram.)). The experiment in a line: Southern Armyworm Leaf Spray Test. The class given is in vivo. Conditions: for LC50: Spodoptera eridania, 72 h, read-out: Southern Armyworm LD50. On the procedure: as §1
Larvae of the southern armyworm (Prodenia eridania, (Cram.)), reared on Tendergreen bean plants at a temperature of 80°±5° F. and a relative humidity of 50±5 percent, constituted the test insects.
The test compounds were formulated by diluting the stock suspension with water to give a suspension containing 500 parts of test compound per million parts of final formulation. Potted Tendergreen bean plants of standard height and age were placed on a revolving turntable and sprayed with 100-110 milliliters of test compound formulation by use of a DeVilbiss spray gun set at 10 psig air pressure. This application, which lasted 25 seconds, was sufficient to wet plants to run-off. As a control, 100-110 milliliters of a water-acetone-emulsifier solution containing no test compound were also sprayed on infested plants. When dry, the paired leaves were separated and each one was placed in a 9 centimeter Petri dish lined with moistened filter paper. Five randomly selected larvae were introduced into each dish and the dishes were closed. The closed dishes were labeled and held at 80-85° F. for three days. Although the larvae could easily consume the whole leaf within twenty-four hours, no more food was added. Larvae which were unable to move the length of the body, even upon stimulation by prodding, were considered dead. Percent mortality was recorded for various concentration levels.

Series [5] deals with bean aphid (Aphis fabae Scop.). The experiment in a line: Bean Aphid Foliage Spray Test. The class given is in vivo. The note with it: for LC50: Aphis fabae, foliar, read-out: Aphid LD50. On the procedure: as §1
Adults and nymphal stages of the bean aphid (Aphis fabae Scop.) reared on potted dwarf nasturtium plants at 65°-70° F. and 50-70 percent relative humidity, constituted the test insects. For testing purposes, the number of aphids per pot was standardized to 100-150 by trimming plants containing excess aphids.
The test compounds were formulated by diluting the stock suspension with water to give a suspension containing 500 parts of test compound per million parts of final formulation.
The potted plants (one pot per compound tested) infested with 100-150 aphids, were placed on a revolving turntable and sprayed with 100-110 milliliters of test compound formulation by use of a DeVilbiss spray gun set at 40 psig. air pressure. This application, which lasted 25 seconds, was sufficient to wet the plants to run-off. As a control, 100-110 milliliters of a water-acetone-emulsifier solution containing no test compound were also sprayed on infested plants. After spraying, the pots were placed on their sides on a sheet of white standard mimeograph paper which had been previously ruled to facilitate counting. Temperature and humidity in the test room during the 24 hour holding period were 65°-70° F. and 50-70 percent, respectively. Aphids which fell onto the paper and were unable to remain standing after being uprighted were considered dead. Aphids remaining on the plants were observed closely for movement and those which were unable to move the length of the body upon stimulation by prodding were considered dead. Percent mortality was recorded for various concentration levels.

For the next series, the system named is mites and insects. The series is described as follows: Pesticidal activity against mites and insects (general statement). Conditions: in vivo. How it is done: Selected species of the new compounds were evaluated in comparison with known similar prior art compounds to determine their pesticidal activity against mites and certain insects, including an aphid, a caterpillar, a beetle and a fly. The new compounds were further evaluated for mammalian toxicity.

The test system of a further series is important economic crops. The experiment in a line: Phytotoxicity against important economic crops.
Where [6] appears, read: foliage spray, ppm required for 50% kill, six days.
Where [7] appears, read: bait test, ppm required for 50% kill, twenty four hours.
The mark [8] stands for this setting: leaf spray, ppm required for 50% kill, three days.
[9] abbreviates: LD50 value (mammalian toxicity), peroral, unit inferred.
Where [10] appears, read: Rat LD50, peroral, dose for mortality rate of 50 percent.
Setting [11] is: foliage spray, ppm required for 50% kill, 24 hour holding period.

As to `CNC(=O)Oc1cccc2c1OC(C)(C)C2` [Compound 1, 2,2-Dimethyl-2,3-dihydro-7-(N-methylcarbamoyloxy)benzofuran], the LC50 in series [1] (setting [6]) stood at 175 µg/mL (≈ 791 µM); in [2] (setting [7]), 12 µg/mL (≈ 54.2 µM); in [3] (setting [8]), 12 µg/mL (≈ 54.2 µM); in [4] (setting [8]), 90 µg/mL (≈ 407 µM); in series [5] (setting [11]), 2 µg/mL (≈ 9.04 µM). Moreover, the LD50 in the series “in vivo” (setting [9]) and in “in vivo” (setting [10]) was 8 to 14 mg/kg in each case. The “mammalian toxicity (in words)” value in the series on rat is “unacceptable levels of mammaliam toxicity”.
Consider `Cc1ccc(SSN(C)C(=O)Oc2cccc3c2OC(C)(C)C3)cc1` [Compound 2, 2,2-Dimethyl-2,3-dihydro-7-[N-methyl-N-(4-methylphenyl-thiosulfenyl)carbamoyloxy]benzofuran], for which, in the series with mites and insects, the “pesticidal activity against mites and insects (in words)” value was “levels generally comparable to those of the parent compounds”. The LC50 is 130 µg/mL (≈ 346 µM) in [1]; 21 µg/mL (≈ 55.9 µM) in series [2]; 4 µg/mL (≈ 10.7 µM) in [3]; around 25 µg/mL (≈ 66.6 µM) in series [4]; 1.4 µg/mL (≈ 3.73 µM) in [5] (24 h). Also, the LD50 in “in vivo” (setting [9]) and in “in vivo” (setting [10]) was 20 mg/kg throughout.
Turning to `CN(SSc1ccc(C(C)(C)C)cc1)C(=O)Oc1cccc2c1OC(C)(C)C2` [Compound 3, 2,2-Dimethyl-2,3-dihydro-7-[N-methyl-N-(4-tert-butylphenylthiosulfenyl)carbamoyloxy] benzofuran], the LC50 was above 500 µg/mL in series [1]; below 17 µg/mL in series [2]; 5 µg/mL (≈ 12 µM) in [3]; 40 µg/mL (≈ 95.8 µM) in series [4]; 3 µg/mL (≈ 7.18 µM) in series [5] (24 h). Further, in series [3] (in vivo), the “insecticidal activity against bean beetle (in words)” value is on record as “exceptionally high level of insecticidal activity”. For the same compound, the median lethal dose (LD50) in the series “in vivo” (setting [9]) and in “in vivo” (setting [10]) was 453 mg/kg throughout. Besides, the “times less toxic to mammals than parent compound (compound 1)” value in the series on rat (rat LD50 ratio vs compound 1) is recorded as “at least 38 times”. Further, the “times less toxic to mammals than 4-methylphenylthiosulfenyl derivative (compound 2)” value in the series on rat (rat LD50 ratio vs compound 2) was “at least 23 times”. The “mammalian toxicity (in words)” value in the series on rat is “extremely low mammalian toxicity”. Besides, in [4] (in vivo), the “insecticidal activity against south armyworm (in words)” value is listed as “exceptionally high level of insecticidal activity”. Further, in the series on important economic crops, the “phytotoxicity (in words)” value is listed as “low phytotoxicity”. Further, in series [5] (in vivo), the “insecticidal activity against aphid (in words)” value was “exceptionally high level of insecticidal activity”.
`CC(C)Oc1ccccc1OC(=O)N(C)SSc1ccc(C(C)(C)C)cc1` [Compound 4, 2-Isopropoxy-[N-methyl-N-(4-tert-butylphenylthiosulfenyl)carbamoyloxy]benzene]: the LC50 in series [1] is above 500 µg/mL; in series [2], 110 µg/mL (≈ 271 µM); in series [3], 11 µg/mL (≈ 27.1 µM); in series [4], 250 µg/mL (≈ 616 µM); in series [5] (24 h), 22 µg/mL (≈ 54.2 µM). The LD50 – broadly, the dose expected to kill half of the subjects tested – in “in vivo” (setting [9]) is above 640 mg/kg; in “in vivo” (setting [10]) it was 640 mg/kg. Further, the “mammalian toxicity (in words)” value with rat is “very low level of mammalian toxicity”. Also, the “phytotoxicity (in words)” value in the series on important economic crops is given as “extremely low phytotoxicity”.
On to `CNC(=O)Oc1ccccc1OC(C)C` [Compound 5, 2-Isopropoxy-(N-methyl-carbamoyloxy)benzene], for which the LC50 was above 500 µg/mL in [1] (setting [6]); 16 µg/mL (≈ 76.5 µM) in series [2] (setting [7]); 12 µg/mL (≈ 57.3 µM) in [3] (setting [8]); 500 µg/mL (≈ 2390 µM) in series [4] (setting [8]); 16 µg/mL (≈ 76.5 µM) in [5] (setting [11]). Moreover, the LD50 in the series “in vivo” (setting [9]) and in “in vivo” (setting [10]) was 95 to 104 mg/kg each time.
